Converted amounts (≈) assume the structure as drawn. Like-named read-outs stand apart in the source and are kept apart here.
Legend:
[1] = Solubility test in the 2nd fluid for the disintegration test of the Japanese Pharmacopoeia; type: physicochemical; settings: pH 6.8, aqueous buffer, thermodynamic from solid; pH6.8, shaken for 2 hours
Procedure: Test substances (10.0 mg) were correctly weighed, and methanol was added to adjust to 10 mL. The solution was diluted by 10 times to prepare a solution of […].
In a centrifuge tube 5.0 mg of the test substance was weighed, added with 5.0 mL of the 2nd fluid for the disintegration test of the Japanese pharmacopoeia, supersonified for 3 minutes, and shaken for 2 hours thereafter. This solution was filitered with a membrane filter (0.2 μm), 500 μL the filtrate was measured, 500 μL of acetonitrile was added, and fully stirred to obtain the sample solution.
To 250 mL of 0.2 mol/L potassium dihydrogenphosphate aqueous solution, 118 mL of 0.2 mol/L sodium hydroxide aqueous solution and water was added to adjust to 1000 mL.
Using a high performance liquid chromatography, each of the sample solution for a calibration curve and sample solution for solubility measurement is measured twice to calculate an average area for each.
Based on the average area obtained in the above mentioned method, using an equation below to calculate a solubility. Solubility in the 2nd fluid for the disintegration test of the Japanese pharmacopoeia(μg/mL)=((P×2)/S)×100
S: Average area on the sample solution for a calibration curve
P: Average area on the sample solution for solubility measurement

[2] = Solubility test in organic solvents (propylene glycol, butylene glycol); type: physicochemical; settings: organic solvent or mixture, thermodynamic from solid, visual observation after 24 hours at room temperature
Procedure: Under room temperature conditions, in a 0.5 mL polypropylene tube, (+)-5-(3,4-difluorophenyl)-5-[(3-methyl-2-oxopyridin-1(2H)-yl)methyl]imidazolidine-2,4-dione and (±)-5-(3,4-difluorophenyl)-5-[(3-methyl-2-oxopyridin-1(2H)-yl)methyl]imidazolidine-2,4-dione measured in advance for a suitable amount were prepared, respectively. In each tube, solvent (Propylene glycol (PG) or butylene glycol (BG)) was added with various amounts, e.g. 10 times, 20 times or 100 times amount of the test compound, and stirred with a vortex mixer. With a table ultrasonic washer set at 37° C., ultrasonication treatment was given for 10 minutes; after warming for an hour in a thermostat chamber, each were kept standing for 24 hours at room temperature. The test solutions were observed by sight to evaluate the states in accordance with the determination criterion given below.
Determination criterion consisted of the following two categories:
“Soluble”: Test compound dissolved; no undissolved substances confirmed by visual observation.
“Insoluble”: Test compound remains undissolved; undissolved substances confirmed by visual observation.

Structure (SMILES): Cc1cccn(CC2(c3ccc(F)c(F)c3)NC(=O)NC2=O)c1=O (racemic) [(±)-5-(3,4-difluorophenyl)-5-[(3-methyl-2-oxopyridin-1(2H)-yl)methyl]imidazolidine-2,4-dione]
- solubility at 2 h [1]: 45 µg/mL (≈ 0.135 mM)
- solubility at 24 h ([2]; BG, 20 times amount of the test compound, read-out: Solubility in butylene glycol (BG), 20 times amount): < 50000 µg/mL
- solubility at 24 h ([2]; BG, 100 times amount of the test compound, read-out: Solubility in butylene glycol (BG), 100 times amount): > 10000 µg/mL
- solubility at 24 h ([2]; PG, 10 times amount of the test compound, read-out: Solubility in propylene glycol (PG), 10 times amount): < 50000 µg/mL
- solubility at 24 h ([2]; PG, 20 times amount of the test compound, read-out: Solubility in propylene glycol (PG), 20 times amount): < 50000 µg/mL
- solubility at 24 h ([2]; PG, 100 times amount of the test compound, read-out: Solubility in propylene glycol (PG), 100 times amount): > 10000 µg/mL
